From patent US12084473B2, “β-D-2′-deoxy-2′-α-fluoro-2′-β-C-substituted-2-modified-N6-substituted purine nucleotides for HCV treatment” (Atea Pharmaceuticals, Inc., priority 2015, dated 2024)
Read-outs that look alike come from different tables or passages of the source.

What was measured:
[1] = system: HCV wild type replicon; experiment: microbe, parasite or virus in culture; type: cell-based; conditions: NS5B Mutation None, transient assay, 96-hr
Procedure: (§1) A transient transfection assay was performed to determine the sensitivity of the […] of HCV to test compounds. Huh-7 cells were electroporated in the presence of RNA transcribed from wild type or S282T HCV replicon plasmids from the T7 promoter. The transfected cells were seeded in to 96-well plates at 7.5×10^3 cells per well in Dulbecco's Modified Eagle's medium. After 24 hr of incubation, medium was removed and replaced with fresh medium containing no or various concentrations of test compounds. Following an additional 96-hr incubation, the anti-HCV activity was measured by luciferase endpoint with Britelite™ Plus luminescence reporter gene kit (Perkin Elmer, Shelton, CT). Duplicate plates were treated and incubated in parallel for assessment of cellular toxicity by staining with the tetrazolium dye XTT.

[2] = system: HCV S282T replicon; experiment: microbe, parasite or virus in culture; type: cell-based; conditions: NS5B Mutation S282T, transient assay, 96-hr
Procedure: as §1

[3] = system: HCV Genotype 2b, NS5B Mutation none; experiment: microbe, parasite or virus in culture; type: cell-based; conditions: genotype 2b, no NS5B mutation
Procedure: (§2) Various patient-derived HCV genotypes containing wild-type and resistance-associated variants were used to determine their relative replication sensitivity to test compounds. Replicon resistance test vectors (RTVs) containing the NS5B genomic regions were prepared using viral RNA isolated from plasma of HCV patients. Each NS5B region was amplified by reverse-transcription polymerase chain reaction and cloned into an HCV replicon RTV which was then transferred by electroporation into Huh-7 cells.

[4] = system: HCV Genotype 1a, NS5B Mutation none; experiment: microbe, parasite or virus in culture; type: cell-based; conditions: genotype 1a, no NS5B mutation
Procedure: as §2

[5] = system: HCV Genotype 2a, NS5B Mutation none; experiment: microbe, parasite or virus in culture; type: cell-based; conditions: genotype 2a, no NS5B mutation
Procedure: as §2

[6] = system: HCV Genotype 1b, NS5B Mutation none; experiment: microbe, parasite or virus in culture; type: cell-based; conditions: genotype 1b, no NS5B mutation
Procedure: as §2

[7] = system: HCV Genotype 3a-1, NS5B Mutation none; experiment: microbe, parasite or virus in culture; type: cell-based; conditions: genotype 3a-1, no NS5B mutation
Procedure: as §2

[8] = system: HCV Genotype 4d, NS5B Mutation none; experiment: microbe, parasite or virus in culture; type: cell-based; conditions: genotype 4d, no NS5B mutation
Procedure: as §2

[9] = system: HCV Genotype 3a-2, NS5B Mutation none; experiment: microbe, parasite or virus in culture; type: cell-based; conditions: genotype 3a-2, no NS5B mutation
Procedure: as §2

[10] = system: HCV Genotype 4a, NS5B Mutation none; experiment: microbe, parasite or virus in culture; type: cell-based; conditions: genotype 4a, no NS5B mutation
Procedure: as §2

[11] = system: HCV Genotype 1a, NS5B Mutation L159F; experiment: microbe, parasite or virus in culture; type: cell-based; conditions: genotype 1a, NS5B L159F
Procedure: as §2

[12] = system: HCV Genotype 1b, NS5B Mutation C316N; experiment: microbe, parasite or virus in culture; type: cell-based; conditions: genotype 1b, NS5B C316N
Procedure: as §2

[13] = system: HCV Genotype 1a, NS5B Mutation L159F and S282T; experiment: microbe, parasite or virus in culture; type: cell-based; conditions: genotype 1a, NS5B L159F and S282T
Procedure: as §2

[14] = system: Huh-7 luc/neo ET cells; experiment: Cytotoxicity by XTT staining in replicon cells
Procedure: (§3) The plates were cultured for 24 hours prior to the addition of compounds. Six serial one half log dilutions of the test articles (high test concentration of 100.0 μM or high test concentration of 1.0 μM) and human interferon-alpha2b (high test 10.0 U/ml) were prepared in cell culture medium and added to the cultured cells in triplicate wells for each dilution. Six wells in the test plates received medium alone as an untreated control. Following 72 hours of culture in the presence of compound, one of the plates was used for the determination of cytotoxicity by staining with XTT and the other for antiviral efficacy by determination of luciferase reporter activity. Cytotoxicity and efficacy data were collected and imported into a customized Excel workbook for determination of the TC50 and EC50 values. […] The y-axis is the percent of virus control and the x-axis is the concentration of drug in μM. […] The y-axis is the percent of virus control and the x-axis is the concentration of drug in M.

[15] = biological target: HCV genotype 1b luciferase reporter replicon; experiment: microbe, parasite or virus in culture; type: cell-based; conditions: for EC50: read-out: EC50 in a replicon assay; for EC95: Huh-7 luc/neo ET cells, 72 hours, luciferase, read-out: HCV Replicon EC50/EC95: EC95; for Fold increase in activity compared to parent nucleoside: Table 7
Procedure: as §3

[16] = system: micro-patterned human hepatocyte co-cultures; experiment: Human Hepatocyte Co-Cultures (HepatoPac): cytotoxicity and hepatocyte health; type: cell-based
Procedure: Cytotoxicity and hepatocyte health were assessed in triplicate by measuring ALT leakage, urea production, albumin secretion and cellular ATP contents in micro-patterned human hepatocyte co-cultures (HepatoPac®, Hepregen Corporation) prepared by seeding cryopreserved human hepatocytes (single donor) and 3T3 J2 mouse fibroblasts in microtiter plates according to procedures established by Hepregen. Culture media was replaced with fresh media containing TA, test article, (0, 1, 10 or 30 μM) every 2 or 3 days through day 16. […] Cellular ATP levels were measured on days 9 and 21. ATP signals in stromal-only control cultures (murine 3T3 fibroblasts) were subtracted from those of human HepatoPac co-cultures to obtain hepatocyte-specific effects. See, Table 4, 5 and 6 below.

[17] = system: HCV genotype 1b luciferase reporter replicon; experiment: microbe, parasite or virus in culture; type: cell-based; conditions: Hepatitis C virus, HuH-7-Luc/Neo-ET, 72 h, read-out: HCV Replicon EC50/EC95: EC50
[18] = Cytotoxicity by XTT staining in replicon cells; conditions: human
Procedure: as §3

[19] = listed as stabilized phosphate prodrug (phosphoramidate) of β-D-2′-deoxy-2′-α-fluoro-2′-β-
[20] = listed as stabilized racemic phosphate prodrug (phosphoramidate) of β-D-2′-deoxy-2′-α-fluo

sofosbuvir [reference compound] gave an IC95 Value [1] of 218 nM, an IC50 ([1]; read-out: IC50 Value) of 36.4 nM and an IC95 Value [2] of over 1000 nM. The IC50 ([2]; read-out: IC50 Value) was 278 nM, the “IC95 Value” [3] was 295.3 nM and the IC50 ([3]; read-out: IC50 Value) was 44.8 nM. For the same compound, the “IC95 Value” [4] was 507.7 nM, the IC50 ([4]; read-out: IC50 Value) was 62.7 nM and the “IC95 Value” [5] was 195.1 nM. The IC50 ([5]; read-out: IC50 Value) was 22.5 nM, the “Fold Change in IC50 from Sofosbuvir” value [6] was 1.0 and the “IC95 Value” [6] was 642.2 nM. The IC50 ([6]; read-out: IC50 Value) was 86 nM, the “IC95 Value” [7] was 689.8 nM and the IC50 ([7]; read-out: IC50 Value) was 126 nM. For the same compound, the “IC95 Value” [8] was 1019.7 nM, the IC50 ([8]; read-out: IC50 Value) was 93.7 nM and the “IC95 Value” [9] was 808.1 nM. The IC50 ([9]; read-out: IC50 Value) was 124 nM, the “IC95 Value” [10] was 681.4 nM and the IC50 ([10]; read-out: IC50 Value) was 74.9 nM. The “IC95 Value” [11] was 1067.5 nM, the IC50 ([11]; read-out: IC50 Value) was 115 nM and the “IC95 Value” [12] was 472.8 nM. For the same compound, the IC50 ([12]; read-out: IC50 Value) was 73.9 nM, the “IC95 Value” [13] was 16.9509 µM and the IC50 ([13]; read-out: IC50 Value) was 1620 nM. For the same compound, the TC50 [14] was “greater than one hundred”, the EC50 [15] was 53 nM and the IC50 ([16]; Day 9, read-out: Effect on Cellular ATP Concentrations, 50% Inhibitory Concentration (IC50)) was 8.6 µM. For the same compound, the IC50 ([16]; Day 21, read-out: Effect on Cellular ATP Concentrations, 50% Inhibitory Concentration (IC50)) was 2.3 µM, the IC50 ([16]; Table 5, Day 2, read-out: Effect on Albumin Secretion, 50% Inhibitory Concentration (IC50)) was over 30 µM and the IC50 ([16]; Table 5, Day 5, read-out: Effect on Albumin Secretion, 50% Inhibitory Concentration (IC50)) was 19.5 µM. The IC50 ([16]; Table 5, Day 7, read-out: Effect on Albumin Secretion, 50% Inhibitory Concentration (IC50)) was 10.9 µM, the IC50 ([16]; Table 5, Day 9, read-out: Effect on Albumin Secretion, 50% Inhibitory Concentration (IC50)) was 9.3 µM and the IC50 ([16]; Table 6, Day 2, read-out: Effect on Albumin Secretion, 50% Inhibitory Concentration (IC50)) was over 30 µM. For the same compound, the IC50 ([16]; Table 6, Day 5, read-out: Effect on Albumin Secretion, 50% Inhibitory Concentration (IC50)) was over 30 µM, the IC50 ([16]; Table 6, Day 7, read-out: Effect on Albumin Secretion, 50% Inhibitory Concentration (IC50)) was over 30 µM and the IC50 ([16]; Table 6, Day 9, read-out: Effect on Albumin Secretion, 50% Inhibitory Concentration (IC50)) was 12.1 µM. The IC50 ([16]; Table 6, Day 12, read-out: Effect on Albumin Secretion, 50% Inhibitory Concentration (IC50)) was 6.8 µM, the IC50 ([16]; Table 6, Day 16, read-out: Effect on Albumin Secretion, 50% Inhibitory Concentration (IC50)) was 2.7 µM and the IC50 ([16]; Table 6, Day 21, read-out: Effect on Albumin Secretion, 50% Inhibitory Concentration (IC50)) was 2.3 µM. For the same compound, the “cytotoxicity to human co-cultured hepatocytes (in words)” value ([16]; text b588) was “more cytotoxicity than AT-511”.

`CNc1nc(NC(=O)C(C)C)nc2c1ncn2[C@@H]1OC(COP(=O)(N[C@@H](C)C(=O)OC(C)C)Oc2ccccc2)[C@@H](O)[C@@]1(C)F` (stereo partly drawn) [Compound 16, isopropyl ((((R,S)-(2R,3R,4R,5R)-5-(2-isobutyramido-6-methylamino-9H-purin-9-yl)-4-fluoro-3-hydroxy-4-methyltetrahydrofuran-2-yl)methoxy)-phenoxy-phosphoryl)-L-alaninate] showed an EC50 [17] of 576 nM, a CC50 at 72 h [18] of over 100 µM and an EC95 ([15]; Hepatitis C virus) of 3.69 µM.

Work on `C#C[C@@]1(F)[C@H](O)[C@@H](CO)O[C@H]1n1cnc2c(N(C)C3CC3)nc(N)nc21` [Compound 43] yielded an EC50 [17] of 6430 nM, a CC50 at 72 h [18] of 21.6 µM and an EC95 ([15]; Hepatitis C virus) of 24.7 µM.

`CCCN(C)c1nc(N)nc2c1ncn2[C@@H]1OC(COP(=O)(N[C@@H](C)C(=O)OC(C)C)Oc2ccccc2)[C@@H](O)[C@@]1(C)F` (stereo partly drawn) [Compound 20, isopropyl ((((R,S)-(2R,3R,4R,5R)-5-(2-amino-6-(N-methyl-propylamino)-9H-purin-9-yl)-4-fluoro-3-hydroxy-4-methyltetrahydrofuran-2-yl)methoxy)-phenoxy-phosphoryl)-L-alaninate] gave an EC50 [17] of 73 nM, a CC50 at 72 h [18] of over 100 µM and an EC95 ([15]; Hepatitis C virus) of 0.315 µM.

`CNc1nc(N)nc2c1ncn2[C@@H]1OC(COP(=O)(N[C@@H](C)C(=O)OC(C)C)Oc2ccccc2)[C@@H](O)[C@@]1(C)F` (mixture of isomers) [Compound 5, isopropyl ((((R,S)-(2R,3R,4R,5R)-5-(2-amino-6-(methylamino)-9H-purin-9-yl)-4-fluoro-3-hydroxy-4-methyltetrahydrofuran-2-yl)methoxy)-phenoxy-phosphoryl)-L-alaninate] showed an EC50 [17] of 26 nM, a CC50 at 72 h [18] of over 100 µM and an EC95 ([15]; Hepatitis C virus) of 0.124 µM. The EC50 ([15]; Hepatitis C virus) was 26 nM, the “Fold increase in activity compared to parent nucleoside” value [15] was over 600 and the “fold increase in activity (versus parent nucleoside)” value [15, 19] was at least 870. The “fold increase in activity (versus parent nucleoside)” value [15, 20] was at least 600.

`CCOc1nc(N)nc2c1ncn2[C@@H]1O[C@@H]2CO[P@](=O)(OC(C)C)O[C@H]2[C@@]1(C)F` gave an EC50 [17] of 45 nM, a CC50 at 72 h [18] of over 100 µM and an EC95 ([15]; Hepatitis C virus) of 0.259 µM.

Work on `CC(C)OC(=O)[C@H](C)NP(=O)(OCC1O[C@@H](n2cnc3c(N(C)C)nc(N)nc32)[C@](C)(F)[C@@H]1O)Oc1ccccc1` (mixture of isomers) [Compound 7, isopropyl ((((R,S)-(2R,3R,4R,5R)-5-(2-amino-6-(dimethylamino)-9H-purin-9-yl)-4-fluoro-3-hydroxy-4-methyltetrahydrofuran-2-yl)methoxy)-phenoxy-phosphoryl)-L-alaninate] yielded an EC50 [17] of 12.1 nM, a CC50 at 72 h [18] of over 100 µM and an EC95 ([15]; Hepatitis C virus) of 0.071 µM. The EC50 ([15]; Hepatitis C virus) was 12 nM, the “Fold increase in activity compared to parent nucleoside” value [15] was over 890 and the “fold increase in activity (versus parent nucleoside)” value [15, 19] was > 1,300. For the same compound, the “fold increase in activity (versus parent nucleoside)” value [15, 20] was over 890.

Compound `CC(C)OC(=O)[C@H](C)N[P@@](=O)(OCC1O[C@@H](n2ccc(=O)[nH]c2=O)[C@](C)(F)[C@@H]1O)Oc1ccccc1` (stereo partly drawn) has an EC50 [17] of 52 nM, a CC50 at 72 h [18] of over 100 µM and an EC95 ([15]; Hepatitis C virus) of 0.31 µM.
